One test concerns Myc-CaP cells. In words: ATAC-seq of chromatin accessibility. The test is classed as cell-based, mouse. From the text: FIGS. 4A-4D are pictorial and graphical diagrams showing low dose Oxali alters chromatin accessibility of MHC-I related genes. […] The Venn diagram compares gene expression between untreated and differently treated cells (left). The heat map depicts differentially expressed genes involved in the indicated pathways (right). […] The Venn diagram presents the number of binding site changes and overlaps after each treatment (left). FIGS. 4C-4D show detailed ATAC seq analyses of the Nfkb1 gene (FIG. 4C) and a mouse Chr17 gene cluster containing Psmb8, Psmb9, Tap1 and Tap2 (FIG. 4D). Changes in transcription factor (TF) binding site accessibility are compared to RNA seq results. The affected TF binding sites are depicted below each panel.
FIGS. 12A-12C are pictorial and graphical diagrams showing that low dose Oxali enhances chromatin accessibility of MHC-I related genes.
To better understand the transcriptional mechanisms underlying the response to Oxali, RNA-seq and ATAC-seq analyses were conducted on Myc-CaP cells that were incubated with either 2 μM Oxali, 1 ng/mL IFNγ, or a combination of the two. By coupling ATAC-seq, a method for assessing transcription factor binding site accessibility (Buenrostro et al., 2015), with RNA-seq, transcription factor loading can be correlated with actual transcriptional changes.
Of note, the NF-κB pathway, represented by the Nfkb1 gene, was stimulated by Oxali but not IFNγ. […] To examine activation of the antigen processing and presentation pathway, a gene cluster on mouse chromosome 17 harboring Psmb9, Tap1, Psmb8, and Tap2 was analyzed. […] However, IFNγ further enhanced transcription factor accessibility in Oxali-treated cells (FIG. 4D), an effect that was consistent with the transcriptomic analysis (FIG. 4A). […] Similarly, the Erap1 locus, which is induced by both Oxali and IFNγ, was made more accessible by Oxali relative to IFNγ treatment (FIG. 12C). […] The addition of IFNγ expanded this response to include E2F6, JUNB, HIF-lb, KLF3, and DMRT6 binding sites. Of note, the chromosome 17 MHC-I region opened by Oxali contained recognition sites for BORIS and CTCF, two general transcription factors responsible for chromatin opening (Li et al., 2012).

Another test has as its system LMP7 (PSMB8). Kind of test: Lysate LMP7 (PSMB8) immunoproteasome activity with specific fluorogenic peptide substrate. The test is classed as cell-based, mouse. The following applies: low-dose.

The text below walks through data of patent US20210386828A1, “METHODS FOR ENHANCING CANCER IMMUNOTHERAPY” (The Regents of the University of California, priority 2018, published 2021).

Protocol for LMP7 (PSMB8): Lysate LMP7 (PSMB8) immunoproteasome activity was measured using LMP7 (PSMB8) specific fluorogenic peptide substrate. […] Each dot is a single experiment and horizontal lines are the medians.

On to `O=C1[O][Pt]2([NH][C@@H]3CCCC[C@H]3[NH]2)[O]C1=O` [Oxali, oxaliplatin], for which the “transcription factor accessibility of chromosome 17 cluster Psmb9, Tap1, Psmb8, Tap2” value with Myc-CaP cells was “increased transcription factor accessibility”. Besides, the “accessibility of transcription factor binding sites at the Nfkb1 locus” value in the test with Myc-CaP cells (2 μM Oxali, 1 ng/mL IFNγ) was “increased accessibility”. Moreover, the “immunoproteasome activity, hydrolysis of LMP7 (PSMB8)-specific substrate” value in the test on LMP7 (PSMB8) is recorded as “stimulated”.
